Measured values as given in patent publication US11814352B2, “Salts formed by 2-(1-acyloxy-n-pentyl) benzoic acid and basic amino acid or aminoguanidine, and preparation method and application thereof” (JIANGSU KANION PHARMACEUTICAL CO., LTD., priority 2018, dated 2023).
Converted amounts (≈) assume the structure as drawn. “And” between values parts separate entries of the source, which are not always exact repeats. Equal values may be shown once. Read-outs that look alike come from different tables or passages of the source.

Experiments:
[1] = molecular target: hERG potassium channel of CHO-hERG cells (Homo sapiens, UniProt Q12809); assay: Effect on hERG potassium channel (automatic patch clamp)
Sequence of hERG potassium channel of CHO-hERG cells (Q12809 whole entry): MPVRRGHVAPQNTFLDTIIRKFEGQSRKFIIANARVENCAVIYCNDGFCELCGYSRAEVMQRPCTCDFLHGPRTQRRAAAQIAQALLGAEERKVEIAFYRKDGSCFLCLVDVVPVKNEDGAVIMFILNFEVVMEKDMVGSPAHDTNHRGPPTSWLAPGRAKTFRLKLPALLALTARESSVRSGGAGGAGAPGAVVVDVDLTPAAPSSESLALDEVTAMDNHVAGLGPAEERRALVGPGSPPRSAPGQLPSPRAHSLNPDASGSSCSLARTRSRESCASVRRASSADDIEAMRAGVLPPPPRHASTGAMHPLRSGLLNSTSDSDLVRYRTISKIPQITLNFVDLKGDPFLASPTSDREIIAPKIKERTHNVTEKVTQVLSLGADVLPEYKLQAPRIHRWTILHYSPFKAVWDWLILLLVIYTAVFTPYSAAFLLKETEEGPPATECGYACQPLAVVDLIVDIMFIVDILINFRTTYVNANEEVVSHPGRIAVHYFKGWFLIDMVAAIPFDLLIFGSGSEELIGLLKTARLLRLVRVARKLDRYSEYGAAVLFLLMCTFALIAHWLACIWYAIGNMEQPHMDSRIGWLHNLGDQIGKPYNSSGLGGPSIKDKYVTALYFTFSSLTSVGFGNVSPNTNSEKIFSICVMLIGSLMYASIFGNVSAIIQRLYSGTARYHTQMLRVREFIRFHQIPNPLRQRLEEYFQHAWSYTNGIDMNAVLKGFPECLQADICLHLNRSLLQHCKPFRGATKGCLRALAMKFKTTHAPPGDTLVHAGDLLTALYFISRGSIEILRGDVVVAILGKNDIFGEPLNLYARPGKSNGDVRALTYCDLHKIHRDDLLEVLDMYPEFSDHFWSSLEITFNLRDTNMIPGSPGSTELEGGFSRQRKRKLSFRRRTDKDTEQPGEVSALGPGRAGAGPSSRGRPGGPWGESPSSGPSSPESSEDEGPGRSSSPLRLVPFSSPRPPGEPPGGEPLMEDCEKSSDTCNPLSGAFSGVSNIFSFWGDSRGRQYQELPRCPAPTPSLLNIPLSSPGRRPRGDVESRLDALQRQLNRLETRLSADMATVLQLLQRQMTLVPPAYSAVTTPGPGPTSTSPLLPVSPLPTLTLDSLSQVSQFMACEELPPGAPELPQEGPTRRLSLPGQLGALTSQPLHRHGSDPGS

[2] = system: AA induced platelet aggregation; assay: In vitro anti-platelet aggregation, AA induced (turbidimetry, PRP); type: cell-based, rabbits; conditions: read-out: IC50 AA (1 mM); rabbit PRP, inducer AA 1 mM, 37° C.
[3] = system: MCAO rats; assay: Cerebral infarction, cerebral edema and nerve function of rats with focal cerebral ischemia (MCAO); type: in vivo, SD rats; conditions: MCAO rats; for inhibition at 10 mg/kg/day: Rattus norvegicus
[4] = system: ADP induced platelet aggregation; assay: In vitro anti-platelet aggregation, ADP induced (turbidimetry, PRP); type: cell-based, rabbits; conditions: read-out: IC50 ADP (10 μM); rabbit PRP, inducer ADP 10 μM, 37° C.
[5] = Acute toxicity test, tail vein injection in mice; conditions: female, ICR, mouse, in vivo, iv, LD50 value, Bliss method
[6] = system: ICR mice; assay: Acute toxicity test, tail vein injection in mice; conditions: for Number of deaths (quantity): 10 animals, 14 days
[7] = Solubility test (saturated solubility in water); type: physicochemical; conditions: 25±2° C.; for solubility at 30 min: 25 °C, thermodynamic from solid
Description: Test method: 10 mg of a test sample (solid was ground into fine powder) was weighed and added to a certain amount of solvent at 25±2° C. (the temperature of a water bath is controlled at 25° C.), and the solution was shaken vigorously for 30 s every 5 min. The dissolution was observed within 30 min. When there were no visible solute particles or droplets, the test sample was regarded as completely dissolved.

[8] = system: histidine-deficient TA97, TA98, TA100 and TA102 strains of Salmonella typhimurium; assay: Bacterial reverse mutation test (Ames test); conditions: 0.1-1000 μg/dish, with and without S9
Description: The test bacteria are the histidine-deficient TA97, TA98, TA100 and TA102 strains of Salmonella typhimurium, and the dose range of the test sample is 0.1-1000 μg/dish.

[9] = Preliminary stability of sample solution in water and methanol; type: physicochemical; conditions: 1 mg/mL stock prepared 2018 Jun. 25, analysed Jun. 29, Jul. 2, Jul. 7
Description: 2018 Jun. […] For each sample test, the stock solution was taken and diluted freshly.
2018 Jun. 29 200 μL of the stock solution was pipetted, 3800 μL of a mobile phase in the initial ratio was added, and 10 μL of a test sample with a concentration of 50 μg/mL was prepared for injection and analysis.
2018 Jul. 2 200 μL of the stock solution was pipetted, 3800 μL of a mobile phase in the initial ratio was added, and 10 μL of a test sample with a concentration of 50 μg/mL was prepared for injection and analysis.
2018 Jul. 7 200 μL of the stock solution was pipetted, 3800 μL of a mobile phase in the initial ratio was added, and 10 μL of a test sample with a concentration of 50 μg/mL was prepared for injection and analysis.
29, 2018 Jul. 2, and 2018 Jul.

[10] = 10 mg/kg/day iv 3 days (combinations equimolar), first dose 2 h after reperfusion

CCCC[C@H](OC(C)=O)c1ccccc1C(=O)O [I1s, L-Arginine (S)-2-(1-Acetoxy-n-Pentyl) Benzoate]
IC50 [1]: > 40 µM | IC50 [2]: 160 ± 20 µM | Cerebral edema [3, 10]: 0.18 ± 3.96% | Infarct volume [3, 10]: 9.12 ± 1.18% | Neurological function of rats with focal cerebral ischemia ([3]; 10 mg/kg/day iv, 2 h after reperfusion): significant neurological improvement effects | inhibition at 10 mg/kg/day ([3]; 10 mg/kg/day iv 3 days (combinations equimolar), first dose 2 h after reperfusion, read-out: Inhibition rate of cerebral edema): 98.8% | inhibition at 10 mg/kg/day ([3]; 10 mg/kg/day iv 3 days (combinations equimolar), first dose 2 h after reperfusion, read-out: Inhibition rate of infarct volume): 78.2% | IC50 [4]: 720 ± 80 µM | LD50 at 14 days [5]: 1120 mg/kg | LD50 at 14 days ([5]; interval in parentheses): 975 to 1290 mg/kg | Symptoms of poisoning ([6]; higher dose in the tail vein): convulsions and decreased activity | Body weight D 1 ([6]; i.v. 700 mg/kg): 19.4 ± 0.6 g | Body weight D 7 ([6]; i.v. 700 mg/kg): 21.0 ± 0.6 g | Body weight D 14 ([6]; i.v. 700 mg/kg): 22.3 ± 0.7 g | Number of deaths (quantity) ([6]; i.v. 700 mg/kg): 1 | Body weight D 1 ([6]; i.v. 900 mg/kg): 19.8 ± 0.5 g | Body weight D 7 ([6]; i.v. 900 mg/kg): 20.9 ± 0.6 g | Body weight D 14 ([6]; i.v. 900 mg/kg): 22.2 ± 0.6 g | Number of deaths (quantity) ([6]; i.v. 900 mg/kg): 2 | Body weight D 1 ([6]; i.v. 1100 mg/kg): 19.4 ± 0.6 g | Body weight D 7 ([6]; i.v. 1100 mg/kg): 21.0 ± 0.5 g | Body weight D 14 ([6]; i.v. 1100 mg/kg): 22.0 ± 0.5 g | Number of deaths (quantity) ([6]; i.v. 1100 mg/kg): 4 | Body weight D 1 ([6]; i.v. 1300 mg/kg): 19.5 ± 0.4 g | Body weight D 7 ([6]; i.v. 1300 mg/kg): 20.8 ± 0.6 g | Body weight D 14 ([6]; i.v. 1300 mg/kg): 22.1 ± 0.6 g | Number of deaths (quantity) ([6]; i.v. 1300 mg/kg): 6 | Body weight D 1 ([6]; i.v. 1500 mg/kg): 19.9 ± 0.2 g | Body weight D 7 ([6]; i.v. 1500 mg/kg): 21.0 g | Body weight D 14 ([6]; i.v. 1500 mg/kg): 23.6 g | Number of deaths (quantity) ([6]; i.v. 1500 mg/kg): 9 | solubility at 30 min ([7]; read-out: Saturated solubility in H2O, Mean): 136 mg/mL (≈ 544 mM) | solubility at 30 min ([7]; read-out: Saturated solubility in H2O, dissolved sample amount (single determinations)): 134 mg/mL (≈ 535 mM) | Saturated solubility in H2O, dissolved sample amount (single determinations) [7]: 134.24 mg/mL and 138.23 mg/mL and 138.40 mg/mL | Ames test result (mutagenicity) [8]: negative | Stability of the sample solution in CH3OH [9]: basically stable | Stability of the sample solution in H2O [9]: basically stable
